Legend:
[1] = tested on: Helicobacter pylori NCTC 11637; assay: MIC in agar (agar dilution); format: cell-based; conditions: for MIC: Helicobacter pylori, NCTC11637
Description: In this experiment the activity of ST 722 and ST 712 against Campylobacter and Helicobacter was investigated.
Campylobacter fetus ATCC 27374, Campylobacter coli LI 048, Campylobacter jejuni 84-ISS, and Helicobacter pylori NCTC 11637.
The culture medium was Columbia agar base supplemented with 7% (V/V) defribinated horse blood (DHB) for Campylobacter strains, and the same medium additioned with Vitox (Oxoid) for Helicobacter strain.
The Campylobacter and Helicobacter strains, preserved at -80° C. in DHB containing 10% (V/V) glycerol, were thawed and grown, in their respective culture medium, in culture flasks, which were incubated for 48 hours at 37° C. in a 10% CO2 atmosphere. After this first growth cycle, the bacteria were allowed to go through a second growth cycle in the same conditions as above.
The bacterial "patina" was then harvested by resuspension in 4-5 ml of Mueller-Hinton broth, the turbidity of which was then assessed according to Mc Farland's criteria (BRAY W. E., Clinical Laboratory Methods, 5th Ed. C. V. MOSBY, St. Louis, Mo. 1957). […]
With a Steers-type multipoint inoculator (STEERS E., FOLTZ E. L., GRAVES S., RIDEN J., 1959. Inocula-replicating apparatus for routine testing of antibacterial susceptibility to antibiotics. Antibiot. Chemoter. 9: 307-311) 1-μl volumes of the above standardized suspensions were spot-transferred into the wells of a 96-well microtiter plate, which had previously been filled with 0.2 ml/well of Mueller-Hinton agar 5% DHB, containing the test substances at different concentrations.
The plates was then incubated for 48/72 hours at 37° C. in a 10% CO2 atmosphere.

[2] = tested on: Helicobacter pylori NCTC 11637; assay: In vitro synergistic effect of ST 722 and Bismuth Subcitrate; format: cell-based
Description: CBS from the commercially available product De-Nol® (Gist-Brocades, Netherland), i.e. ammonium and potassium double salt of colloidal bismuth citrate hydroxide, was utilized by preparing a suspension of 10 mg/ml CBS in 1N NaOH. After diluting 1:10 in Mueller-Hinton broth, 8 serial two-fold dlitutions in the same medium were made. The compound ST 722 was dissolved in Mueller-Hinton broth at a starting concentration of 100 mcg/ml, then 7 serial two-fold dilutions were carried out.
The "in vitro" anti-Helicobacter activity of both CBS and ST 722, alone and in association, was tested by utilizing the strain H. pylori NCTC 11637.
A 24-hour culture of Helicobacter in Columbia agar medium supplemented with Vitox (Oxoid) and 7% defribinated horse blood is washed with Mueller-Hinton broth.
Following densitometric evaluation (reading at 600 nm), the bacterial suspension was adjusted to a concentration of 1.0×10^9 cells/ml and 0.2-ml volumes were distributed into each well of a 96-well U-bottomed microtiter plate.
A 1-μl volume of this bacterial suspension was then distributed, by means of a Steers-type replicator apparatus, into the wells of microtiter plates containing the substances, either alone or in association. The final bacterial inoculum contained approximately 1.0×10^6 bacterial cells.
The procedure described by Garrod et al. (GARROD, L. P. and WATERWORTH, P. M., 1962. Methods of testing combined antibiotic bactericidal action and the significance of the results. J. Clin. Pathol. 15, 328-338) was utilized.
Briefly, 250-μl volumes of each test substance, either alone or admixed in all the possible combinations, were additioned to 4.5 ml of Mueller-Hinton agar containing 5% defribinated horse serum. Volumes of 0.2 ml/well of the resulting solution were distributed into the wells of a microtiter plate, then seeded with 1 μl/well of a standardized bacterial suspension, and finally incubated for 48 hours at 37° C. in a 10% CO2 atmosphere.
In order to evaluate the results obtained with combinations of antibiotics it was utilized the method (KROGSTAD, D. J. and MOELLERING, R. C., 1983. Antimicrobial combinations. In LORIAN, V., Antibiotics in Laboratory Medicine, 15, 537-549) based on the calculation of the Fractional Inhibitory Concentration Index (FIC index).
FIC index is calculated as follows: [formula] Where (A) is the MIC of substance A in the association and (MICA) is the […] of the organism to substance A alone. FICA is the fractional inhibitory concentration of substance A. (B), (MICB) and FICB are defined in the same fashion for substance B.
Based on these criteria, the effect of a combination of 2 substances is referred to as 'synergistic" when the FIC index is ≤0.5, "additive" with a FIC index=1, and "antagonist" when FIC index is >1.

[3] = tested on: antibody-producer B lymphocytes (spleen of SRBC immunized mice); assay: Test 1: primary antibody production (Jerne test) in spleen of SRBC immunized mice; format: in vivo, mouse (male B6 D2 F1)
Description: Evaluation of the "in vitro-ex vivo" effect of repeated oral administrations of ST 722 on the primary antibody production (Jerne test) in the spleen of SRBC (Sheep Red Blood Cells) immunized mice.
Male B6 D2 F1 mice (C. River) aged 8 weeks (6 animals each group) were utilized.
The substance (ST 722) was administered per os at the dose of 100 mg/kg/day from day -2 through day +2 (immunization at day 0).
The animals were immunized by intraperitoneal route with a concentration of 1.0×10^8 cells/mouse in 0.2 ml of sterile saline.
Five days later, spleens to be submitted to teasing process were removed from the animals sacrificed by cervical dislocation.
After standardization at 1.0×10^7 cells/ml, the splenocytes (0.1 ml) were mixed with warm agar-Hank's (2 ml) and 10% SRBC in PBS (0.2 ml) and seeded in Petri dishes (samples tested in triplicates) and incubated at 37° C. for 60 min.
After addition of complement (2 ml of guinea pig serum diluted 1:10 in Tris buffer), samples were further incubated at 37° C. for 30 min.
To block the haemolysis reaction, the Petri dishes were cooled at 4° C. and the haemolysis plaques were counted.
The antibody response to SRBC is expressed as number of plaque forming cells (PFC) per 1.0×10^6 splenocytes as well as per spleen.

[4] = 100 mg/kg/day per os, day -2 through day +2, mean ± S.E.

`CCCCCCCCCCCOC(=O)CC(C[N+](C)(C)C)OC(=O)CC(C)C` [ST 722, Isovaleryl-L-Carnitine Undecyl Ester Chloride] was tested, and the MIC ([1]; I = inoculum of 1.0 × 10^5 cells/ml, read-out: MIC in agar) was 1.56 mg/L, the MIC ([1]; agar medium, inoculum not given, read-out: MIC vs. H. pylori NCTC 11637) was 1.56 mg/L and the MIC in agar ([1]; II = inoculum of 1.0 × 10^6 cells/ml) was 1.56 mg/L. For the same compound, the “antibacterial activity for Helicobacter and Campylobacter” value ([1]; agar, Helicobacter and Campylobacter strains) was “possess an antibacterial activity”, the MIC ([2]; Helicobacter pylori, NCTC11637, substance alone, H. pylori NCTC 11637, 48 hours, read-out: MIC) was 1.56 mg/L and the “FIC (fractional inhibitory concentration)” value ([2]; ST 722 with CBS) was 0.12. For the same compound, the “toxic effect on weight of the lymphoid organs (spleen and thymus)” value ([3]; 100 mg/kg/day per os) was “did not show values relating to a toxic effect”, the Body weight [3, 4] was 25.12 g and the “PFC/10^6 cells” value [3, 4] was 261 ± 34 PFC/10^6 cells. The PFC/spleen [3, 4] was 44440 PFC/spleen, the Spleen weight [3, 4] was 94.33 mg and the Thymus weight [3, 4] was 59.50 mg. The “modification in PFC number after the antigenic challenge” value ([3]; repeated (5 consecutive days) oral administrations) was “did not cause a statistically significant modification in PFC number”.
